From patent US20260035387A1 (BIOGEN MA INC., priority 2022, published 2026)

System: mutant Huntington (HTT) protein
Assay: HTT Mutant HTRF iPSC assay (mHTT protein lowering)
Type: cell-based
Conditions: human iPSC derived from a HTT patient with a poly-Q49 mutation

SMILES	IC50
Cc1cn2cc(NC(=O)c3cc4ccc(N5CC[C@]6(CCCN6C)C5)nc4s3)nc(C(F)F)c2n1 (single isomer, unassigned) [Compound 255]	< 100 nM
COc1cc2nn(C)cc2cc1NC(=O)c1cc2ncc(N3CCC4(CCN4C)C3)nc2s1 (single isomer, unassigned) [Compound 264]	< 100 nM
COc1c(NC(=O)c2cc3ccc(C4CCN(C)C4)nc3s2)cc2cn(C)nc2c1F (single isomer, unassigned) [Compound 265]	< 100 nM
COc1c(NC(=O)c2cc3ccc(C4CCN(C)C4)nc3s2)cc2cn(C)nc2c1F (single isomer, unassigned) [Compound 266]	< 100 nM
Cc1cn2cc(NC(=O)c3cc4ccc(N5CCC(N(C)C)C5)nc4s3)ccc2n1 (stereo in doubt) [Compound 25, (R)-6-(3-(dimethylamino)pyrrolidin-1-yl)-N-(2-methylimidazo[1,2-a]pyridin-6-yl)thieno[2,3-b]pyridine-2-carboxamide]	100 to 1000 nM
Cc1cn2cc(NC(=O)c3cc4ccc(N5CCC(N(C)C)C5)nc4s3)ccc2n1 (stereo in doubt) [Compound 26, (S)-6-(3-(dimethylamino)pyrrolidin-1-yl)-N-(2-methylimidazo[1,2-a]pyridin-6-yl)thieno[2,3-b]pyridine-2-carboxamide]	100 to 1000 nM
Cc1cn2cc(NC(=O)c3cc4ccc(N5CC[C@H]6CN(C)CC[C@H]65)nc4s3)ccc2n1 (stereo in doubt) [Compound 28, N-(2-methylimidazo[1,2-a]pyridin-6-yl)-6-((3aS,7aR)-5-methyloctahydro-1H-pyrrolo[3,2-c]pyridin-1-yl)thieno[2,3-b]pyridine-2-carboxamide]	1000 to 9000 nM
Cc1cn2cc(NC(=O)c3cc4ccc(N5CCC6CCN(C)C6C5)nc4s3)ccc2n1 (stereo in doubt) [Compound 30, N-(2-methylimidazo[1,2-a]pyridin-6-yl)-6-((3aR,7aR)-1-methyloctahydro-6H-pyrrolo[2,3-c]pyridin-6-yl)thieno[2,3-b]pyridine-2-carboxamide]	100 to 1000 nM
Cc1cn2cc(NC(=O)c3cc4ccc(N5C[C@H]6C[C@@H]5CN6C(C)C)nc4s3)ccc2n1 (stereo in doubt) [Compound 34, 6-((1R,4R)-5-isopropyl-2,5-diazabicyclo[2.2.1]heptan-2-yl)-N-(2-methylimidazo[1,2-a]pyridin-6-yl)thieno[2,3-b]pyridine-2-carboxamide]	< 100 nM
Cc1cn2cc(NC(=O)c3cc4ccc(N5CC6CCN(C)C6C5)nc4s3)ccc2n1 (stereo in doubt) [Compound 43, 6-((3aR,6aR)-1-methylhexahydropyrrolo[3,4-b]pyrrol-5(1H)-yl)-N-(2-methylimidazo[1,2-a]pyridin-6-yl)thieno[2,3-b]pyridine-2-carboxamide]	100 to 1000 nM
CCN[C@H]1CCN(c2ccc3cc(C(=O)Nc4cc(F)c5nc(C)cn5c4)sc3n2)C1 (stereo in doubt) [Compound 67, 6-[(3S)-3-(ethylamino)pyrrolidin-1-yl]-N-(8-fluoro-2-methyl-imidazo[1,2-a]pyridin-6-yl)thieno[2,3-b]pyridine-2-carboxamide]	< 100 nM
CCN[C@@H]1CCN(c2ccc3cc(C(=O)Nc4cc(F)c5nc(C)cn5c4)sc3n2)C1 (stereo in doubt) [Compound 68, 6-[(3R)-3-(ethylamino)pyrrolidin-1-yl]-N-(8-fluoro-2-methyl-imidazo[1,2-a]pyridin-6-yl)thieno[2,3-b]pyridine-2-carboxamide]	< 100 nM
Cc1cn2cc(NC(=O)c3nc4ccc(N5CC[C@@H](N6CCC6)C5)nc4s3)cc(F)c2n1 (stereo in doubt) [Compound 92, (rel-(R)-5-(3-(azetidin-1-yl)pyrrolidin-1-yl)-N-(8-fluoro-2-methylimidazo[1,2-a]pyridin-6-yl)thiazolo[5,4-b]pyridine-2-carboxamide]	< 100 nM
COc1cc(NC(=O)c2cc3nc(N4C[C@H]5CN(C)C[C@H]54)ccc3o2)cn2cc(C)nc12 (stereo in doubt) [Compound 168, N-(8-methoxy-2-methyl-imidazo[1,2-a]pyridin-6-yl)-5-[(1R,5S)-3-methyl-3,6-diazabicyclo[3.2.0]heptan-6-yl]furo[3,2-b]pyridine-2-carboxamide]	< 100 nM
Cc1cn2cc(NC(=O)c3cc4ccc(N5CCC(N(C)C)C5)nc4s3)ccc2n1 (stereo not shown) [Compound 1, 6-[3-(dimethylamino)pyrrolidin-1-yl]-N-(2-methylimidazo[1,2-a]pyridin-6-yl)thieno[2,3-b]pyridine-2-carboxamide]	1000 to 9000 nM
Cc1cc(NC(=O)c2cc3ccc(N4C[C@@H](C)N[C@@H](C)C4)nc3s2)cc2cn(C)nc12 [Compound 2, N-(2,7-dimethylindazol-5-yl)-6-[(3S,5R)-3,5-dimethylpiperazin-1-yl]thieno[2,3-b]pyridine-2-carboxamide]	< 100 nM
Cc1cn2cc(NC(=O)c3cc4ccc(N5CCN(C)CC5)nc4s3)nc(C)c2n1 [Compound 3, N-(2,8-dimethylimidazo[1,2-a]pyrazin-6-yl)-6-(4-methylpiperazin-1-yl)thieno[2,3-b]pyridine-2-carboxamide]	100 to 1000 nM

SMILES	IC50
Cc1cc(NC(=O)c2cc3ccc(N4CCC(N(C)C)C4)nc3s2)cc2cn(C)nc12 (stereo not shown) [Compound 4, N-(2,7-dimethyl-2H-indazol-5-yl)-6-(3-(dimethylamino)pyrrolidin-1-yl)thieno[2,3-b]pyridine-2-carboxamide]	100 to 1000 nM
Cc1cn2cc(NC(=O)c3cc4ccc(N5CCC(N(C)C)C5)nc4s3)nc(C)c2n1 (stereo not shown) [Compound 5, 6-(3-(dimethylamino)pyrrolidin-1-yl)-N-(2,8-dimethylimidazo[1,2-a]pyrazin-6-yl)thieno[2,3-b]pyridine-2-carboxamide]	100 to 1000 nM
Cc1cn2cc(NC(=O)c3cc4ccc(N5CC[C@@H](N(C)C)C5)nc4s3)ncc2n1 [Compound 6, 6-[(3R)-3-(dimethylamino)pyrrolidin-1-yl]-N-(2-methylimidazo[1,2-a]pyrazin-6-yl)thieno[2,3-b]pyridine-2-carboxamide]	100 to 1000 nM
Cc1cc(NC(=O)c2cc3nc(N4CCC(N(C)C)C4)ccc3o2)cc2cn(C)nc12 (stereo not shown) [Compound 7, N-(2,7-dimethyl-2H-indazol-5-yl)-5-(3-(dimethylamino)pyrrolidin-1-yl)furo[3,2-b]pyridine-2-carboxamide]	1000 to 9000 nM
Cc1cn2cc(NC(=O)c3cc4nc(N5CC[C@H](N(C)C)C5)ccc4o3)cc(F)c2n1 [Compound 8, 5-[(3S)-3-(dimethylamino)pyrrolidin-1-yl]-N-(8-fluoro-2-methyl-imidazo[1,2-a]pyridin-6-yl)furo[3,2-b]pyridine-2-carboxamide]	1000 to 9000 nM
Cc1cn2cc(NC(=O)c3nc4ccc(N5CCC(N(C)C)C5)nc4s3)ccc2n1 (stereo not shown) [Compound 9, 5-[3-(dimethylamino)pyrrolidin-1-yl]-N-(2-methylimidazo[1,2-a]pyridin-6-yl)thiazolo[5,4-b]pyridine-2-carboxamide]	1000 to 9000 nM
Cc1cn2cc(NC(=O)c3cc4ccc(N5CC[C@@H](N(C)C)C5)nc4s3)cc(F)c2n1 [Compound 10, 6-[(3R)-3-(dimethylamino)pyrrolidin-1-yl]-N-(8-fluoro-2-methyl-imidazo[1,2-a]pyridin-6-yl)thieno[2,3-b]pyridine-2-carboxamide]	< 100 nM
Cc1cn2cc(NC(=O)c3cc4ccc(N5CCC(N(C)C)CC5)nc4s3)ccc2n1 [Compound 11, 6-(4-(dimethylamino)piperidin-1-yl)-N-(2-methylimidazo[1,2-a]pyridin-6-yl)thieno[2,3-b]pyridine-2-carboxamide]	100 to 1000 nM
Cc1cn2cc(NC(=O)c3cc4ccc(NC5CC6CCCN6C5)nc4s3)ccc2n1 (stereo not shown) [Compound 12, 6-((hexahydro-1H-pyrrolizin-2-yl)amino)-N-(2-methylimidazo[1,2-a]pyridin-6-yl)thieno[2,3-b]pyridine-2-carboxamide]	100 to 1000 nM
Cc1cn2cc(NC(=O)c3cc4ccc(NC5CCC6CN(C)CC65)nc4s3)ccc2n1 (stereo not shown) [Compound 13, N-(2-methylimidazo[1,2-a]pyridin-6-yl)-6-((2-methyloctahydrocyclopenta[c]pyrrol-4-yl)amino)thieno[2,3-b]pyridine-2-carboxamide]	1000 to 9000 nM
Cc1cn2cc(NC(=O)c3cc4ccc(NC5CCN6CCCC6C5)nc4s3)ccc2n1 (stereo not shown) [Compound 14, N-(2-methylimidazo[1,2-a]pyridin-6-yl)-6-((octahydroindolizin-7-yl)amino)thieno[2,3-b]pyridine-2-carboxamide]	100 to 1000 nM
Cc1cn2cc(NC(=O)c3cc4ccc(N5CCC6OCCN(C)C6C5)nc4s3)ccc2n1 (stereo not shown) [Compound 15, 6-(4-methylhexahydro-2H-pyrido[4,3-b][1,4]oxazin-6(5H)-yl)-N-(2-methylimidazo[1,2-a]pyridin-6-yl)thieno[2,3-b]pyridine-2-carboxamide]	100 to 1000 nM
Cc1cn2cc(NC(=O)c3cc4ccc(N5CCC6CCN(C)CC65)nc4s3)ccc2n1 (stereo not shown) [Compound 16, N-(2-methylimidazo[1,2-a]pyridin-6-yl)-6-(6-methyloctahydro-1H-pyrrolo[2,3-c]pyridin-1-yl)thieno[2,3-b]pyridine-2-carboxamide]	1000 to 9000 nM
Cc1cn2cc(NC(=O)c3cc4ccc(N5CCC(N6CC(C)(C)C6)CC5)nc4s3)ccc2n1 [Compound 17, 6-(4-(3,3-dimethylazetidin-1-yl)piperidin-1-yl)-N-(2-methylimidazo[1,2-a]pyridin-6-yl)thieno[2,3-b]pyridine-2-carboxamide]	1000 to 9000 nM
Cc1cn2cc(NC(=O)c3cc4ccc(N5C[C@@H](C)N(C)[C@@H](C)C5)nc4s3)ccc2n1 [Compound 18, N-(2-methylimidazo[1,2-a]pyridin-6-yl)-6-((3R,5S)-3,4,5-trimethylpiperazin-1-yl)thieno[2,3-b]pyridine-2-carboxamide]	< 100 nM
Cc1cn2cc(NC(=O)c3cc4ccc(N5CCC(N6CCCC6)C5)nc4s3)ccc2n1 (stereo not shown) [Compound 19, 6-([1,3′-bipyrrolidin]-1′-yl)-N-(2-methylimidazo[1,2-a]pyridin-6-yl)thieno[2,3-b]pyridine-2-carboxamide]	100 to 1000 nM
Cc1cn2cc(NC(=O)c3cc4ccc(N5CCC6(CCN(C)CC6)CC5)nc4s3)ccc2n1 [Compound 20]	100 to 1000 nM
